# Test results taken from ChEMBL document CHEMBL6071165, “Design, synthesis and biological evaluation of plant-derived miliusol derivatives achieve TNBC profound regression in vivo” (Eur J Med Chem, 2024).
# Activity calls are given as the source filed them. The rule behind the calls is not given here.
# Tests used:
# BT-549 [1] = assay: Antiproliferative activity against human BT-549 cells xenografted in female BALB/c mouse model assessed as fold change in downregulation of MMP-2 protein level at 20 mg/kg administered subcutaneously incubated for 24 hrs by Western blot analysis (reference value: 1.00%); format: functional; conditions: route sc
# Mitochondrial membrane = assay: Disruption of mitochondrial potential loss in human BT-549 cells assessed as decrease in JC-1 aggregates at 1 uM incubated for 24 hrs by JC-1 staining based flow cytometric analysis (Rvb =98.7%); format: cell membranes; parameters: scale not given: the % may be the effect or the level left
# BT-549 [2] = assay: Induction of apoptosis in human BT-549 cells assessed as necrotic cells at 1 uM incubated for 24 hrs by Annexin V-PI staining based flow cytometric analysis (reference value: 3.32%); format: functional
# MDA-MB-231 [3] = assay: Induction of ER stress in human MDA-MB-231 cells assessed as appearance of large number of vacuoles at 1 uM incubated for 24 hrs by TEM analysis; format: functional, cell-based
# MDA-MB-231 [4] = assay: Inhibition of cell proliferation in human MDA-MB-231 cells assessed as reduction in Ki-67 expression at 0.5 to 2 uM incubated for 24 hrs by DAPI staining based immunofluorescence analysis; format: functional; conditions: dose 0.5-2 µM
# BT-549 [5] = assay: Antiproliferative activity against human BT-549 cells xenografted in female BALB/c mouse model assessed as fold change in inhibition of PKM2 expression at 5 mg/kg administered subcutaneously incubated for 24 hrs by Western blot analysis (reference value: 1.05%); format: functional; conditions: route sc
# MDA-MB-231 [6] = assay: Inhibition of glycolysis in human MDA-MB-231 cells assessed as decrease in LDHA protein level at 0.5 to 2 uM incubated for 24 hrs by Western blot analysis; format: functional, cell-based; conditions: dose 0.5-2 µM
# MDA-MB-231 [7] = assay: Induction of apoptosis in human MDA-MB-231 cells assessed as late apoptotic cells at 0.5 uM incubated for 24 hrs by Annexin V-PI staining based flow cytometric analysis (reference value: 1.83%); format: functional
# MDA-MB-231 [8] = assay: Induction of apoptosis in human MDA-MB-231 cells assessed as upregulation of cleavage of caspase-3 expression at 0.5 to 2 uM incubated for 24 hrs by Western blot analysis; format: functional, cell-based; conditions: dose 0.5-2 µM
# MDA-MB-231 [9] = assay: Induction of apoptosis in human MDA-MB-231 cells assessed as upregulation of cleavage of PARP level at 0.5 to 2 uM incubated for 24 hrs by Western blot analysis; format: functional, cell-based; conditions: dose 0.5-2 µM
# BT-549 [10] = assay: Inhibition of cell migration in human BT-549 cells assessed as increase in E-cadherin level by incubated for 24 hrs by Western blot analysis; format: functional, cell-based; conditions: dose 0.5-2 µM
# BT-549 [11] = assay: Antiproliferative activity against human BT-549 cells xenografted in female BALB/c mouse model assessed as fold change in downregulation of MMP-2 protein level at 5 mg/kg administered subcutaneously incubated for 24 hrs by Western blot analysis (reference value: 1.00%); format: functional; conditions: route sc
# MDA-MB-231 [12] = assay: Inhibition of glycolysis in human MDA-MB-231 cells assessed as decrease in GLUT4 protein level at 0.5 to 2 uM incubated for 24 hrs by Western blot analysis; format: functional, cell-based; conditions: dose 0.5-2 µM
# MDA-MB-231 [13] = assay: Antiproliferative activity against human MDA-MB-231 cells xenografted in female BALB/c mouse model assessed as fold change in upregulation of BAX protein level at 5 mg/kg administered subcutaneously incubated for 24 hrs by Western blot analysis (reference value: 1.00%); format: functional; conditions: route sc
# BT-549 [14] = assay: Inhibition of glycolysis in human BT-549 cells assessed as reduction in lactate production at 0.5 to 2 uM; format: functional, cell-based; conditions: dose 0.5-2 µM
# MDA-MB-231 [15] = assay: Induction of apoptosis in human MDA-MB-231 cells assessed as upregulation of cleavage of caspase-9 expression at 0.5 to 2 uM incubated for 24 hrs by Western blot analysis; format: functional, cell-based; conditions: dose 0.5-2 µM
# BT-549 [16] = assay: Induction of apoptosis in human BT-549 cells assessed as viable cells at 2 uM incubated for 24 hrs by Annexin V-PI staining based flow cytometric analysis (reference value: 93.0%); format: functional; conditions: read-out: Activity
# BT-549 [17] = assay: Antiproliferative activity against human BT-549 cells xenografted in female BALB/c mouse model assessed as fold change in inhibition of PKM2 expression at 10 mg/kg administered subcutaneously incubated for 24 hrs by Western blot analysis (reference value: 1.05%); format: functional; conditions: route sc
smiles,measurement,setting,value
CC(C)=CCC/C(C)=C/[C@H]1OC(=O)CC12C[C@H](OC(=O)Cc1ccc(NC(=O)/C=C/c3ccccc3)cc1)C=CC2=O (stereo partly drawn),fold change (FC),BT-549 [1],0.17
same,Activity,Mitochondrial membrane,43.2%
same,Activity,BT-549 [2],5.44%
same,Activity,MDA-MB-231 [3],Active
same,inhibition,MDA-MB-231 [4],Active
same,fold change (FC),BT-549 [5],0.97
same,inhibition,MDA-MB-231 [6],Active
same,Activity,MDA-MB-231 [7],16.4%
same,Activity,MDA-MB-231 [8],Active
same,Activity,MDA-MB-231 [9],Active
same,inhibition,BT-549 [10],Dose-Dependent Effect
same,fold change (FC),BT-549 [11],0.99
same,inhibition,MDA-MB-231 [12],Active
same,fold change (FC),MDA-MB-231 [13],1.05
same,inhibition,BT-549 [14],Active
same,Activity,MDA-MB-231 [15],Active
same,viability at 2 µM,BT-549 [16],34.8%
same,fold change (FC),BT-549 [17],0.76
